Results as given in US20250328351A1, “CARBONIC ANHYDRASE INHIBITORS AND ANTIBIOTICS AGAINST MULTIDRUG RESISTANT BACTERIA” (Purdue Research Foundation, priority 2018, published 2025).
≈ marks a conversion by molar mass, not a printed value. Where two headings read alike, the source gives them in different places.

How the values were obtained:
[1] = system: Enterococcus faecium E417 - HM-965; experiment: MIC, broth microdilution (CLSI); type: cell-based; conditions: Enterococcus faecium, E417HM965, Table 1; TSB; read-out: MIC
[2] = system: Enterococcus faecium Patient #2-1 - NR-31909; experiment: MIC, broth microdilution (CLSI); type: cell-based; conditions: Enterococcus faecium, TSB, read-out: MIC
[3] = system: Enterococcus fecalis Strain SF 24397 NR31970; experiment: MIC, broth microdilution (CLSI); type: cell-based; conditions: Enterococcus, TSB, read-out: MIC
[4] = system: Enterococcus faecalis S613 HM-334; experiment: MIC, broth microdilution (CLSI); type: cell-based; conditions: Enterococcus faecalis, read-out: MIC
[5] = system: MRSA NRS 384 (MRSA USA300); experiment: MIC, broth microdilution (CLSI); type: cell-based; conditions: Staphylococcus aureus; Table 2; TSB
Description: (§1) The minimum inhibitory concentrations (MICs) of the compounds and control drugs were determined using the broth microdilution method, according to guidelines outlined by the Clinical and Laboratory Standards Institute (CLSI)^1. Staphylococci strains were grown aerobically overnight on tryptone soya agar plates at 37° C., afterwards a bacterial solution equivalent to 0.5 McFarland standard was prepared and diluted in tryptone soy broth (TSB) to achieve a bacterial concentration of about 5×10^5 CFU/mL and seeded in 96-well well plates. Compounds and control drugs were added in the first row of the 96-well plates and serially diluted along the plates. Plates were then incubated aerobically at 37° C. for 18-20 hours. MICs reported in Table 2 are the minimum concentration of the compounds/control drugs that could inhibit completely the visual growth of the bacteria.

[6] = system: Staphylococcus epidermidis NRS 101; experiment: MIC, broth microdilution (CLSI); type: cell-based; conditions: NRS101, Table 2, TSB
Description: as §1

[7] = system: Mutant-2 of Enterococcus fecalis NR 31975; experiment: microbe, parasite or virus in culture; type: cell-based
[8] = system: Mutant-5 of Enterococcus fecalis NR 31975; experiment: microbe, parasite or virus in culture; type: cell-based
[9] = system: Mutant-9 of Enterococcus fecalis NR 31975; experiment: microbe, parasite or virus in culture; type: cell-based
[10] = system: Mutant-11 of Enterococcus fecalis NR 31975; experiment: microbe, parasite or virus in culture; type: cell-based
[11] = system: Mutant-12 of Enterococcus fecalis NR 31975; experiment: microbe, parasite or virus in culture; type: cell-based
VERO cells = experiment: In vitro cytotoxicity, MTS assay; type: cell-based, monkey; conditions: concentration up to 128 μg/mL; two hours incubation
Description: Toxicity assessment: Compounds AS005H, AS005J, AS004B, AS005K, AS005A and 005D were assayed (at concentrations of 64 and 128 μg/mL) against a fibroblast-like monkey kidney cell line (VERO cell) to determine the potential toxic effect in vitro. Briefly, cells were cultured in Minimum Essential Medium (MEM) supplemented with 10% fetal bovine serum (FBS), 1 mM sodium pyruvate, and penicillin-streptomycin at 37° C. with CO2 (5%). Control cells received DMSO alone at a concentration equal to that in drug-treated cell samples. The cells were incubated with the compounds (in triplicate) in a 96-well plate at 37° C. with CO2 (5%) for two hours. The assay reagent MTS 3-(4,5-dimethylthiazol-2-yl)-5-(3-carboxymethoxyphenyl)-2-(4-sulfophenyl)-2H-tetrazolium) (Promega, Madison, WI, USA) was subsequently added and the plate was incubated for four hours. Absorbance readings (at OD490) were taken using a kinetic microplate reader (Molecular Devices, Sunnyvale, CA, USA). The quantity of viable cells after treatment with each compound was expressed as a percentage of the viability of DMSO-treated control cells (average of triplicate wells±standard deviation). The toxicity data was analyzed via a two-way ANOVA, with post hoc Dunnet's multiple comparisons test (P<0.05), utilizing GraphPad Prism 6.0 (GraphPad Software, La Jolla, CA).
Percent viable mammalian cells (measured as average absorbance ratio (test agent relative to DMSO) for cytotoxicity analysis of compounds AS005H, AS005J, AS004B, AS005K, AS005A and 005D (tested in triplicates) at 64 and 128 μg/mL against VERO cells using the MTS 3-(4,5-dimethylthiazol-2-yl)-5-(3-carboxymethoxyphenyl)-2-(4-sulfophenyl)-2H-tetrazolium) assay. Dimethyl sulfoxide (DMSO) was used as a negative control to determine a baseline measurement for the cytotoxic impact of each compound. The absorbance values represent an average of a minimum of three samples analyzed for each compound. Error bars represent standard deviation values for the absorbance values.

## CC(C)=CC(=O)Nc1nnc(S(N)(=O)=O)s1 [CAI0016, 3-Methyl-N-(5-sulfamoyl-1,3,4-thiadiazol-2-yl)but-2-enamide]
[1]
  MIC: 0.25 µg/mL (≈ 0.953 µM)
[2]; Table 1
  MIC: 0.5 µg/mL (≈ 1.91 µM)
[2]; Table 7
  MIC: 0.25 µg/mL (≈ 0.953 µM)
[3]; Table 1
  MIC: 0.5 µg/mL (≈ 1.91 µM)
[3]; Table 7
  MIC: 0.25 µg/mL (≈ 0.953 µM)
[4]; S613HM334, Table 1, TSB
  MIC: 0.5 µg/mL (≈ 1.91 µM)
[4]; S613HM334, Table 6, TSB in presence of 4% human serum albumin
  MIC: > 256 µg/mL
[4]; S613HM334, Table 7, TSB
  MIC: 0.25 µg/mL (≈ 0.953 µM)
[5]
  MIC: > 64 µg/mL
[6]
  MIC: > 64 µg/mL
[7]
  MIC: 8 µg/mL (≈ 30.5 µM)
[8]
  MIC: 4 µg/mL (≈ 15.2 µM)
[9]
  MIC: 4 µg/mL (≈ 15.2 µM)
[10]
  MIC: 4 µg/mL (≈ 15.2 µM)
[11]
  MIC: 8 µg/mL (≈ 30.5 µM)
VERO cells
  toxicity to VERO cells (percent viable cells, MTS): non-toxic
